The target in one assay is KRAS G12D (Homo sapiens (Human), UniProt P01116, G12D). Put plainly: KRAS G12D LoEnz Biochemical Assay, BODIPY-GDP Exchange TR-FRET (SOS1-mediated nucleotide exchange). The settings on record: read-out: KRas (G12D) GDP HTRF IC50.
The next assay addresses KRAS WT (Homo sapiens (Human), UniProt P01116). The experiment in a line: KRAS WT Biochemical Assay, BODIPY-GDP Exchange TR-FRET (Example 501; 3 nM KRAS WT, 3 nM SOS1, 60-minute incubation). The gist of the method:
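SOS1-mediated exchange assay: 3 nM biotin-KRAS WT with terbium-streptavidin, started with 3 nM SOS1 and 300 nM BODIPY-GDP, HEPES pH 7.5 with MgCl2. TR-FRET (520/490 nm) read after 60 min; normalized to DMSO and full-inhibition control, IC50 from 4-parameter Hill fit.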

[1] abbreviates: read-out: KRas(wt) GDP HTRF IC50.

The structures appear in SMILES notation. Read-outs that look alike come from different tables or passages of the source.

A word on the IC50: it is the concentration needed to halve the response being measured.

Chain of KRAS WT (P01116-2 other isoform, or with tags, fused parts or gaps): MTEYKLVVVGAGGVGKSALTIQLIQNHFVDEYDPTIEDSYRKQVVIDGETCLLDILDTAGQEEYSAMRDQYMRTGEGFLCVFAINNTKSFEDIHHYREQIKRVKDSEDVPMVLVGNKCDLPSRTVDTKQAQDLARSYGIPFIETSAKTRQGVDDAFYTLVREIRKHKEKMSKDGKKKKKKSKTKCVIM
Chain of KRAS G12D (P01116-2 other isoform, or with tags, fused parts or gaps G12D): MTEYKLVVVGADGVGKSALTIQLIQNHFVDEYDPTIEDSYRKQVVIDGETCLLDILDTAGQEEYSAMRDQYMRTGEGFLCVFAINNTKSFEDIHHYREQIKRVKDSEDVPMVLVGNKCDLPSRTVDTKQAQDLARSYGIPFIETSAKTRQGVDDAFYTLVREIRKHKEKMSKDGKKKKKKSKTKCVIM

In the case of `Cc1cc(N)c(F)c(-c2nc3c4c(nc(OC[C@@]56CCCN5C[C@H](F)C6)nc4c2F)N2C[C@H]4CC[C@H](N4)[C@H]2CO3)c1C(F)(F)F` [Compound 36, 2-fluoro-3-((5aS,6S,9R)-1-fluoro-12-(((2R,7aS)-2-fluorotetrahydro-1H-pyrrolizin-7a(5H)-yl)methoxy)-5a,6,7,8,9,10-hexahydro-5H-4-oxa-3,10a,11,13,14-pentaaza-6,9-methanonaphtho[1,8-ab]heptalen-2-yl)-5-methyl-4-(trifluoromethyl)aniline], the half-inhibitory concentration (IC50) on KRAS G12D was found to be 0.98 nM; on KRAS WT (setting [1]), 0.0465 µM.
Consider `Cc1c(F)c(N)cc(-c2nc3c4c(nc(OC[C@@]56CCCN5C[C@H](F)C6)nc4c2F)N2C[C@H]4CC[C@H](N4)[C@@H]2[C@@H](C(F)(F)F)O3)c1C(F)(F)F` [Compound 248, 2-Fluoro-5-((5S,5aR,6S,9R)-1-fluoro-12-(((2R,7aS)-2-fluorotetrahydro-1H-pyrrolizin-7a(5H)-yl)methoxy)-5-(trifluoromethyl)-5a,6,7,8,9,10-hexahydro-5H-4-oxa-3,10a,11,13,14-pentaaza-6,9-methanonaphtho[1,8-ab]heptalene-2-yl)-3-methyl-4-(trifluoromethyl)aniline], for which the IC50 was determined as 1.1 nM on KRAS G12D and 0.000522 µM on KRAS WT (read-out: KRas HTRF IC50).
For `Cc1nc(N)cc(-c2nc3c4c(nc(OCC5(CN6C7CCC6COC7)CC5)nc4c2F)N2C[C@H]4CC[C@H](N4)[C@H]2[C@H](C)O3)c1C(F)(F)F` [Compound 206, 4-((5S,5aS,6S,9R)-12-((1-((3-Oxa-8-azabicyclo[3.2.1]octan-8-yl)methyl)cyclopropyl)methoxy)-1-fluoro-5-methyl-5a,6,7,8,9,10-hexahydro-5H-4-oxa-3,10a,11,13,14-pentaaza-6,9-methanonaphtho[1,8-ab]heptalene-2-yl)-6-methyl-5-(trifluoromethyl)pyridin-2-amine], in that order: 0.17 nM and 0.0242 µM.
`C#Cc1cccc2cc(O)cc(-c3nc4c5c(nc(OC[C@@]67CCCN6C[C@H](F)C7)nc5c3F)N3C[C@H]5CC[C@H](CN5CCCF)[C@H]3CO4)c12` [Compound 50, 5-Ethynyl-4-((5aS,6R,9R)-1-fluoro-14-(3-fluoropropyl)-12-(((2R,7aS)-2-fluorotetrahydro-1H-pyrrolizin-7a(5H)-yl)methoxy)-5a,6,7,8,9,10-hexahydro-5H-4-oxa-3,10a,11,13,14-pentaaza-6,9-ethanonaphtho[1,8-ab]heptalen-2-yl)naphthalen-2-ol]: the IC50 at KRAS G12D was 0.24 nM; on KRAS WT (setting [1]) it was 0.00169 µM.
With `Cc1nc(N)cc(-c2nc3c4c(nc(OC[C@@]56CCN5CC(F)(F)C6)nc4c2F)N2C[C@H]4CC[C@H](N4)[C@H]2[C@H](C(F)(F)F)O3)c1C(F)(F)F` (single isomer, unassigned) [252 (isomer 1)], the IC50 at KRAS G12D worked out at 1.17 nM; on KRAS WT (read-out: KRas HTRF IC50), 0.025 µM.
Turning to `Cc1nc(N)cc(-c2nc3c4c(nc(OCC5(CN6C[C@H](F)C[C@H](F)C6)CC5)nc4c2F)N2C[C@H]4CC[C@H](N4)[C@H]2[C@H](C)O3)c1C(F)(F)F` [Compound 269, 4-((5S,5aS,6S,9R)-12-((1-(((3S,5R)-3,5-difluoropiperidin-1-yl)methyl)cyclopropyl)methoxy)-1-fluoro-5-methyl-5a,6,7,8,9,10-hexahydro-5H-4-oxa-3,10a,11,13,14-pentaaza-6,9-methanonaphtho[1,8-ab]heptalene-2-yl)-6-methyl-5-(trifluoromethyl)pyridin-2-amine], the IC50 amounted to 0.42 nM on KRAS G12D and 0.105 µM on KRAS WT (read-out: KRas HTRF IC50).
With `Cc1c(F)c(N)cc(-c2nc3c4c(nc(OCC5(CN6CC6(C)C)CC5)nc4c2F)N2C[C@H]4CC[C@H](N4)[C@H]2[C@H](C)O3)c1C(F)(F)F` (stereo partly drawn) [Compound 259, 5-((5S,5aS,6S,9R)-12-((1-((2,2-Dimethylaziridin-1-yl)methyl)cyclopropyl)methoxy)-1-fluoro-5-methyl-5a,6,7,8,9,10-hexahydro-5H-4-oxa-3,10a,11,13,14-pentaaza-6,9-methanonaphtho[1,8-ab]heptalen-2-yl)-2-fluoro-3-methyl-4-(trifluoromethyl)aniline], the IC50 at KRAS G12D came out at 0.16 nM; at KRAS WT (KRas HTRF IC50 [uM]) it was 0.00971 µM.
Consider `Cc1nc(N)cc(-c2nc3c4c(nc(OC[C@@]56CCCN5C[C@H](F)C6)nc4c2F)N2C[C@H]4CC[C@H](N4)[C@H]2[C@H](C)O3)c1CC(F)(F)F` [Compound 185, 4-((5S,5aS,6S,9R)-1-Fluoro-12-(((2R,7aS)-2-fluorotetrahydro-1H-pyrrolizin-7a(5H)-yl)methoxy)-5-methyl-5a,6,7,8,9,10-hexahydro-5H-4-oxa-3,10a,11,13,14-pentaaza-6,9-methanonaphtho[1,8-ab]heptalene-2-yl)-6-methyl-5-(2,2,2-trifluoromethyl)pyridin-2-amine], for which the figures for the IC50 on KRAS G12D and on KRAS WT (read-out: KRas HTRF IC50) were 1.1 nM and 0.107 µM, respectively.
On to `Cc1nc(N)c(F)c(-c2nc3c4c(nc(OCC5(CN6C[C@H]7C[C@@H]6CO7)CC5)nc4c2F)N2C[C@H]4CC[C@H](N4)[C@H]2[C@H](C)O3)c1C(F)(F)F` [Compound 223, 4-((5S,5aS,6S,9R)-12-((1-(((1R,4R)-2-Oxa-5-azabicyclo[2.2.1]heptan-5-yl)methyl)cyclopropyl)methoxy)-1-fluoro-5-methyl-5a,6,7,8,9,10-hexahydro-5H-4-oxa-3,10a,11,13,14-pentaaza-6,9-methanonaphtho[1,8-ab]heptalene-2-yl)-3-fluoro-6-methyl-5-(trifluoromethyl)pyridin-2-amine], for which the IC50 at KRAS G12D was determined as 3.39 nM; on KRAS WT (read-out: KRas HTRF IC50), 0.0513 µM.
For `C[C@@H]1Oc2nc(-c3c(F)ccc4cc[nH]c(=O)c34)c(F)c3nc(OC[C@@]45CCCN4C[C@H](F)C5)nc(c23)N2C[C@H]3CC[C@H](N3)[C@@H]12` [Compound 196, 7-Fluoro-8-((5S,5aS,6S,9R)-1-fluoro-12-(((2R,7aS)-2-fluorotetrahydro-1H-pyrrolizin-7a(5H)-yl)methoxy)-5-methyl-5a,6,7,8,9,10-hexahydro-5H-4-oxa-3,10a,11,13,14-pentaaza-6,9-methanonaphtho[1,8-ab]heptalen-2-yl)isoquinolin-1(2H)-one], in that order: 248 nM and 20.1 µM.
`C[C@@H]1Oc2nc(-c3cc(O)cc4ccccc34)c(F)c3nc(OC[C@]45CCN4CC(F)(F)C5)nc(c23)N2C[C@H]3CC[C@H](N3)[C@@H]12` [Compound 25, 4-((5S,5aS,6S,9R)-12-(((R)-3,3-difluoro-1-azabicyclo[3.2.0]heptan-5-yl)methoxy)-1-fluoro-5-methyl-5a,6,7,8,9,10-hexahydro-5H-4-oxa-3,10a,11,13,14-pentaaza-6,9-methanonaphtho[1,8-ab]heptalen-2-yl)naphthalen-2-ol]: the figures for the IC50 on KRAS G12D and on KRAS WT (setting [1]) were 2.04 nM and 0.126 µM, respectively.
In the case of `Cc1c(F)c(N)cc(-c2nc3c4c(nc(OC[C@@]56CCCN5C[C@H](OCc5ccc(-c7ccccc7C#N)cc5)C6)nc4c2F)N2C[C@H]4CC[C@H](N4)[C@H]2[C@H](C)O3)c1C(F)(F)F` [Compound 32, 4′-((((2R,7aS)-7a-((((5S,5aS,6S,9R)-2-(5-amino-4-fluoro-3-methyl-2-(trifluoromethyl)phenyl)-1-fluoro-5-methyl-5a,6,7,8,9,10-hexahydro-5H-4-oxa-3,10a,11,13,14-pentaaza-6,9-methanonaphtho[1,8-ab]heptalen-12-yl)oxy)methyl)hexahydro-1H-pyrrolizin-2-yl)oxy)methyl)-[1,1′-biphenyl]-2-carbonitrile], the results for the IC50 at KRAS G12D and at KRAS WT (setting [1]) were 0.2 nM and 0.000579 µM, respectively.

Values taken from patent US20240025919A1, “AZA-TETRACYCLIC OXAZEPINE COMPOUNDS AND USES THEREOF” (Genentech, Inc., priority 2022, published 2024).
